Experimental data published in article PMC10821229, “Synthesis and Antiviral Activity of Novel β-D-N4-Hydroxycytidine Ester Prodrugs as Potential Compounds for the Treatment of SARS-CoV-2 and Other Human Coronaviruses” (Pharmaceuticals, 2023).
Entries after “also recorded” stand apart in the source; their conditions may differ.

Test system: HCoV-229E and three SARS-CoV-2 variants
Experiment: Antiviral effect against all tested coronavirus variants (text comparisons)
Assay type: cell-based, human coronavirus
Conditions: for antiviral effect against all tested coronavirus variants (in words): HCoV-229E and three SARS-CoV-2 variants

Structure (SMILES)	antiviral effect against all tested coronavirus variants (in words)	also measured
COc1cccc(CCC(=O)OC[C@H]2O[C@@H](n3ccc(NO)nc3=O)[C@H](O)[C@@H]2O)c1 [SN_23, 5′-O-3-(3-Methoxyphenyl)propanoyl-N4-hydroxycytidine]		times higher antiviral effect than SN_15 and SN_16 (compared with SN_15 and SN_16): 2–6 times
Cc1cccc(OCC(=O)OC[C@H]2O[C@@H](n3ccc(NO)nc3=O)[C@H](O)[C@@H]2O)c1 [SN_22, 5′-O-(3-Methylphenoxy)acetyl-N4-hydroxycytidine]	highest activity	
O=C(Cc1ccccc1F)OC[C@H]1O[C@@H](n2ccc(NO)nc2=O)[C@H](O)[C@@H]1O [SN_17, 5′-O-(2-Fluorophenyl)acetyl-N4-hydroxycytidine]		fold increase in antiviral activity compared to SN_18 (compared with 4-fluoro substituted conjugate SN_18): ≥ 2 fold
O=C(OC[C@H]1O[C@@H](n2ccc(NO)nc2=O)[C@H](O)[C@@H]1O)C1(c2ccccc2)CC1 [SN_20, 5′-O-(1-Phenylcyclopropanoyl-1-carbonyl)-N4-hydroxycytidine]	no antiviral effect; also recorded: lowest activity	
